Reference: patent US20250281480A1, “PHARMACEUTICAL DRY POWDER INHALATION FORMULATION” (Bayer Aktiengesellschaft, priority 2021, published 2025)

Columns and labels:
[1] = tested on: conscious hypoxia challenged dog; test: Conscious hypoxia challenged dog model, duration of action (PAP reduction); type: in vivo
[2] = tested on: soluble guanylyl cyclase; test: Efficacy under experimental conditions of oxidative stress (ODQ, L-NAME treatment); type: in vivo
[3] = tested on: plasma proteins; test: Protein binding via Transil assay, human plasma; type: in vitro ADME; conditions: human plasma
Source text: (§1) The distribution of a test substance between Transil® (phosphatidylcholine lipid bilayers immobilized on silica beads) and plasma is a characteristic feature of any pharmaceutical compound and is dependent on its extent of binding to plasma proteins. By comparing the distribution between Transil® and buffer with the distribution between Transil® and plasma of any species of interest, the unbound fraction in the plasma of the respective animal species can be calculated in vitro. The respective plasma and buffer concentrations were determined via a radioactivity analysis. A detailed description of the method and its validation was published by Schuhmacher et al. (2).

[4] = tested on: plasma proteins; test: Protein binding via Transil assay, monkey plasma; type: in vitro ADME
Source text: as §1

## O=C(O)c1ccc(CCN(CCc2ccccc2OCc2ccc(-c3ccc(C(F)(F)F)cc3)cc2Cl)[C@H]2CCCc3nc(C(=O)O)ccc32)cc1 [Comparative example 11, (5S)-5-{[2-(4-carboxyphenyl)ethyl][2-(2-{[3-chloro-4′-(trifluoromethyl)[biphenyl]-4-yl]methoxy}phenyl)ethyl]amino}-5,6,7,8-tetrahydroquinoline-2-carboxylic Acid]
[1]
  duration of effect (PAP reduction): up to 17 hrs
[2]
  efficacy under oxidative stress: enhanced
[3]
  free fraction, lower than comparative example 1: 2 times lower
[4]
  free fraction, lower than comparative example 1: 2 times lower
